What was measured:
HIF1α protein = experiment: HIF immunoblot in SH-SY5Y neuroblastoma cells; assay type: cell-based, human; conditions: 5 μM, three hours
Protocol: After three hours of 5 μM drug treatment, cells were scraped in ice cold PBS and centrifuged at 1,000×g per 5 min. The pellet was used for nuclear extract preparation with the NE-PER Nuclear and Cytoplasmic Extraction kit (Pierce). After SDS-PAGE followed by transfer to a nitrocellulose membrane, the latter was incubated overnight at 4° C. with primary polyclonal antibody against HIF-1α (Upstate) and monoclonal antibody against β-actin (Sigma) (dilution 1:250 and 1:5000, respectively, in Odyssey Blocking Buffer). Secondary fluorophore conjugated Odyssey IRDye-680 and IRD-800 antibodies (LI-COR Biosciences) were added at 1:20,000 in Odyssey Blocking Buffer, and incubated for one hour at room temperature. Immunoreactive proteins were detected using Odyssey IR imaging system (LI-COR Biosciences).

[1] = system: HIF ODD-luc reporter (HIF PHD-controlled stability); experiment: HTS with cell-based HIF ODD-luciferase reporter (SH-SY5Y-ODD-luc cells); parameters: species or system human; conditions: three hours, SH-SY5Y-ODD-luc
Text: For HTS, a cell-based reporter system was employed. The cell-based reporter system was generated by fusing HIF-1a oxygen degradable domain (ODD) to luciferase (Safran M. et al., PNAS, 2006, 103, 105-110), which represents a cell-based capture assay monitored by the consumption of the luciferase-labeled HIF substrate under the conditions more physiological than in vitro test tubes. In accord with their structure activity relationship in reporter assay, the best “hits” stabilize HIF1, upregulate known HIF target genes in a human neuronal line, and exert neuroprotective effects in established model of oxidative stress in cortical neurons.
The reporter cell lines constitutively expressing ODD-luc (human neuroblastoma, SH-SY5Y) were stable for more than one year without significant change in their response to canonical PHD inhibitors such as DFO, dihydroxybenzoate (DHB), dimethyloxalylglycine (DMOG), and ciclopirox (FIG. 1B). In order to verify the specificity of luciferase changes as an assay for PHD activity, several control lines were developed: the control line expressing ODD-luc with proline 564 and 567 mutated to Ala generates luciferase fusion that cannot be degraded and experimentally identifies a ceiling level of ODD-luc protein attainable in these cells. The background signal for the wild-type HIF ODD-luc line (PYIP) corresponds to approximately 5-6% of the ODD-luc levels in the control line AYIA (double mutant P564A/P567A line) (FIG. 2). Treatment with 10 μM ciclopirox results in a 10-fold increase of a background signal for the wild-type ODD-luc reporter (PYIP line), i.e. reaches almost 50% of the threshold value (FIG. 2).
The assay was optimized for HTS format to provide Z values above 0.7. SH-SY5Y-ODD-luc cells were plated into 384—well white flat-bottom plates at 7,000 cell/well in 30 μl of serum and incubated overnight at 37° C., 5% CO2. The next day, compounds were added to a final concentration of 10 μM, plates were incubated for three hours at 37° C., and luciferase activity was measured using SteadyGlo™ reagent (Promega). Each plate had two internal standards, ciclopirox (100%), and DMSO (0%). The reporter activation (%) was calculated as a ratio (L−LDMSO)/(Lciclopirox−LDMSO). Hits were defined as those >25%. HTS of 85,000 compounds was performed at Rockefeller HTS Resource Center. 295 hits from the initial screen have been tested in quadruplicate, 160 were confirmed. Classification into 10 structural clusters has been done manually; 25 hits were singletons.

With `Oc1cccc2cccnc12` [8-hydroxyquinoline, reference compound] the HIF1α protein stabilization (HIF1α protein) was “not”, the “fold reporter activation over background” value ([1]; 10 μM) was 4-5 fold and the activation at 10 µM ([1]; Homo sapiens, 3 h, read-out: reporter activation (%) relative to ciclopirox (100%) and DMSO (0%)) was 35 to 45%.

Reference: patent US9505741B2, “Prolylhydroxylase inhibitors and methods of use” (CORNELL UNIVERSITY, priority 2010, dated 2016)
